Results: patent publication US8372878B2, “Aminoguanidines as melanocortin receptor ligands” (Anamar AB, priority 2006, dated 2013)

What was measured:
[1] = target: MC1-Receptor (Mus musculus, UniProt Q01727); test: Affinity for the MC1-receptor, binding assay with I125-NDP-αMSH as ligand; conditions: read-out: Affinity for MC-receptors Ki MC1
Description: Test 1. Affinity for the MC1-Receptor
The binding assay was carried out essentially as described by Lunec et al, Melanoma Res 1992; 2; 5-12, using I^125-NDP-αMSH as ligand.

[2] = target: MC1 (Homo sapiens, UniProt Q01726); test: Stimulation of cAMP, MC1; format: cell-based
Description: (§1) Test 3. cAMP The stimulation of cAMP was carried out essentially as described by Schiöth et al, Br J Pharmacol 1998; 124; 75-82.

[3] = target: T1, MC3 (Homo sapiens, UniProt P41968); test: Stimulation of cAMP, MC3; format: cell-based
Description: as §1

[4] = target: T2, MC4 (Homo sapiens, UniProt P32245); test: Stimulation of cAMP, MC4; format: cell-based
Description: as §1

[5] = target: T3, MC5 (Homo sapiens, UniProt P33032); test: Stimulation of cAMP, MC5; format: cell-based
Description: as §1

[6] = target: T1, MC3; test: Affinity for the MC3-receptors, binding assay with I125-NDP-αMSH as ligand; conditions: read-out: Affinity for MC-receptors Ki MC3
Description: (§2) Test 2. Affinity for the MC3-Receptors, the MC4-Receptors and the MC5-Receptors
(§3) The binding assays were carried out essentially as described by Szardenings et al, J Biol Chem 1997; 272; 27943-27948 and Schiöth et al, FEBS Lett 1997; 410; 223-228 using I^125-NDP-αMSH as ligand.

[7] = target: T2, MC4; test: Affinity for the MC4-receptors, binding assay with I125-NDP-αMSH as ligand; conditions: read-out: Affinity for MC-receptors Ki MC4
Description: as §2, §3

[8] = target: T3, MC5; test: Affinity for the MC5-receptors, binding assay with I125-NDP-αMSH as ligand; conditions: read-out: Affinity for MC-receptors Ki MC5
Description: as §2, §3

T2 sequence (P32245 whole entry): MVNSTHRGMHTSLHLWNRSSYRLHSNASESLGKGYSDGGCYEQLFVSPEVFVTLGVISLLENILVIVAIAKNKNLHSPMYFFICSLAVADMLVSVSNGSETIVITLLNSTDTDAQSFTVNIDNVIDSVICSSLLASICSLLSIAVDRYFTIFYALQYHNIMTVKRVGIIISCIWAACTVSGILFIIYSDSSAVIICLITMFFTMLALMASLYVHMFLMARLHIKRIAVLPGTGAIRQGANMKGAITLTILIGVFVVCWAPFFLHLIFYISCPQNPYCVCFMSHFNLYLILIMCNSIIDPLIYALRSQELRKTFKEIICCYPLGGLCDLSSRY
T1 sequence (P41968 whole entry): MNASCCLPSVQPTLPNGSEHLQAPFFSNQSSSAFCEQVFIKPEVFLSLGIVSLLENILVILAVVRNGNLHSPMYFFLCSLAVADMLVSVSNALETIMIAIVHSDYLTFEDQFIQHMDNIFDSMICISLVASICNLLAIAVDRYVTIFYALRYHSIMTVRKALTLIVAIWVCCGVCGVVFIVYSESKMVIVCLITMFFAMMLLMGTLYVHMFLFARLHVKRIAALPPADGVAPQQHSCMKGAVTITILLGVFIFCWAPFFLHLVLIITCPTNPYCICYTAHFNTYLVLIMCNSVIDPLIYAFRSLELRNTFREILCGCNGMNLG
T3 sequence (P33032 whole entry): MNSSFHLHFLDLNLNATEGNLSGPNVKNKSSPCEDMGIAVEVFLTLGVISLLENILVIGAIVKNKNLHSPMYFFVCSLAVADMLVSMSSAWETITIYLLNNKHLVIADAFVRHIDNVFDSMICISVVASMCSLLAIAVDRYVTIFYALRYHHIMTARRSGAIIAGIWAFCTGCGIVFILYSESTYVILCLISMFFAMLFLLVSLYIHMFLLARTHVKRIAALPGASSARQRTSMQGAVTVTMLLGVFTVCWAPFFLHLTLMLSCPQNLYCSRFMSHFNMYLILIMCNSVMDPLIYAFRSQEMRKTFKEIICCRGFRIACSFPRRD
Chain of MC1 (Q01726 whole entry): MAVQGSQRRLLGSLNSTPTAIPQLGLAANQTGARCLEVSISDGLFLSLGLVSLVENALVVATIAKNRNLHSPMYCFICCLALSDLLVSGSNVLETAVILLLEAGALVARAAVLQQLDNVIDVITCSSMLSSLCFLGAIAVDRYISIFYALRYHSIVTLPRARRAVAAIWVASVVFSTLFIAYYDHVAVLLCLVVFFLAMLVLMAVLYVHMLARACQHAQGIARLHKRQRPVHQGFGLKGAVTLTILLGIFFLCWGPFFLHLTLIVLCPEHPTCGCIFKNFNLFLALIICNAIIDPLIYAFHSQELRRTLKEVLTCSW
Chain of MC1-Receptor (Q01727 whole entry): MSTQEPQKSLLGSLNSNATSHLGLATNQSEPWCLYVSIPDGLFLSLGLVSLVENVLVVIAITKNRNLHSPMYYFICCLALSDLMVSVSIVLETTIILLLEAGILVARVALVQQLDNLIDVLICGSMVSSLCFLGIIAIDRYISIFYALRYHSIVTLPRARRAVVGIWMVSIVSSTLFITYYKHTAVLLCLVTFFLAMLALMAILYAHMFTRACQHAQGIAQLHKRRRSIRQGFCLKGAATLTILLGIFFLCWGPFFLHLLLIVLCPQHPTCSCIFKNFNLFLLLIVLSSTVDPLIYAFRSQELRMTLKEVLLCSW

SMILES | Ki [1] | Influence on cAMP MC1c [2] | Influence on cAMP MC3c [3] | Influence on cAMP MC4c [4] | Influence on cAMP MC5c [5] | Ki [6] | Ki [7] | Ki [8]
CCOC(=O)c1cccc(C=NNC(=N)N)c1Cl.O=C(O)C(F)(F)F [1:3, N-(2-Chloro-(3-ethoxycarbonyl)-benzylideneamino)guanidine trifluoroacetate] | 3.4 µM | 0 | 0 | 7 | 0 |  |  | 
CSc1c(Cl)cccc1C=NNC(=N)N.Cl [Compound 1:1, N-(2-Methylthio-3-chlorobenzylideneamino)guanidine hydrochloride] | 0.7 µM | 1 | 2 | 13 | 1 | 19.7 µM | 0.6 µM | 19.7 µM
